Test results reported in patent publication US4948782A, “A method of promoting the growth of domestic animals with erythromycin derivative containing composition” (Kitasato Kenkyusho, priority 1987, dated 1990).
Values after ≈ are worked out from the molar mass of the structure shown. Where two headings read alike, the source gives them in different places.

Assays:
Assay type in all cases: cell-based
[1] = system: Staphylococcus aureus ATCC 6538P; test: MIC, Staphylococcus aureus ATCC 6538P (SA(1)); conditions: Staphylococcus aureus, ATCC6538P, read-out: MIC SA (1)
From the text: (§1) The minimum inhibitory concentrations (MIC: mcg/ml) of the erythromycin derivatives of the present invention and the control erythromycin derivative (*) as the known growth promoting agent on typical test bacteria are shown in the following Tables 1 to 5.
SA(1): Staphylococcus aureus ATCC 6538P

[2] = system: Staphylococcus aureus FDA 209P; test: MIC, Staphylococcus aureus FDA 209P (SA(2)); conditions: Staphylococcus aureus, FDA209P, read-out: MIC SA (2)
From the text: as §1
SA(2): Staphylococcus aureus FDA 209P

[3] = system: Bacillus subtilis; test: MIC, Bacillus subtilis (BS); conditions: read-out: MIC BS
[4] = system: Bacillus cereus IFO 3001; test: MIC, Bacillus cereus IFO 3001 (BC); conditions: Bacillus cereus
[5] = system: Escherichia coli NIHJ; test: MIC, Escherichia coli NIHJ (EC)
[6] = system: Klebsiella pneumoniae ATCC 10031; test: MIC, Klebsiella pneumoniae ATCC 10031 (KP)
[7] = Staphylococcus aureus ATCC 6538P
[8] = IFO3001, Bacillus cereus IFO 3001, read-out: MIC BC
[9] = ATCC10031, Klebsiella pneumoniae ATCC 10031, read-out: MIC KP

SMILES	MIC [1, 7]	MIC ([2]; Staphylococcus aureus FDA 209P)	MIC [3]	MIC [4, 8]	MIC [5]	MIC [6, 9]	MIC [1]	MIC [2]	MIC ([4]; IFO3001, read-out: MIC BC)	MIC ([6]; Klebsiella pneumoniae, ATCC10031, read-out: MIC KP)
CC[C@H]1OC(=O)[C@H](C)[C@@H](O[C@H]2C[C@@](C)(OC)[C@@H](O)[C@H](C)O2)[C@H](C)[C@@H](O[C@@H]2O[C@H](C)C[C@H](N(C)C)[C@H]2O)[C@@]2(C)CC(C)C(O2)[C@H](C)[C@@H](O)[C@]1(C)O (some centres unmarked) [*1, reference compound]	12.5 mg/L (≈ 17.4 µM)	12.5 mg/L (≈ 17.4 µM)	6.25 mg/L (≈ 8.71 µM)	12.5 mg/L (≈ 17.4 µM)	> 100 mg/L	> 100 mg/L				
CC[C@H]1OC(=O)[C@H](C)[C@@H](O[C@H]2C[C@@](C)(OC)[C@@H](O)[C@H](C)O2)[C@H](C)[C@@H](O[C@@H]2O[C@H](C)C[C@H](N(C)C)[C@H]2O)[C@@]2(C)CC(C)C3(O[C@@]1(C)[C@H](O)[C@H]3C)O2 (some centres unmarked) [*2 (EM202), Anhydroerythromycin A, reference compound]	12.5 mg/L (≈ 17.5 µM)	12.5 mg/L (≈ 17.5 µM)								
CC[C@H]1OC(=O)[C@H](C)[C@@H](O[C@H]2C[C@@](C)(OC)[C@@H](O)[C@H](C)O2)[C@H](C)[C@@H](O[C@@H]2O[C@H](C)C[C@H](N(C)C)[C@H]2O)[C@](C)(O)C[C@@H](C)C(=O)[C@H](C)[C@@H](O)[C@]1(C)O [*3, Erythromycin A, reference compound]			0.2 mg/L (≈ 0.273 µM)		25 mg/L (≈ 34.1 µM)		0.2 mg/L (≈ 0.273 µM)	0.4 mg/L (≈ 0.545 µM)	0.2 mg/L (≈ 0.273 µM)	6.25 mg/L (≈ 8.52 µM)
CCC1OC(=O)C(C)C(OC2CC(C)(OC)C(O)C(C)O2)C(C)C(OC2OC(C)CC([N+](C)(C)C)C2O)C2(C)CC(C)=C(O2)C(C)C(O)C1(C)O (centres unmarked) [Compound 1]	> 100 mg/L	> 100 mg/L	> 100 mg/L	> 100 mg/L	> 100 mg/L	> 100 mg/L				
CCC1OC(=O)C(C)C(OC2CC(C)(OC)C(O)C(C)O2)C(C)C(OC2OC(C)CC([N+](C)(C)C)C2O)C2(C)CC(C)=C(O2)C(C)C(OC(C)=O)C1(C)OC(C)=O (centres unmarked) [Compound 2]	100 mg/L	100 mg/L	100 mg/L	100 mg/L	> 100 mg/L	> 100 mg/L				
CCC1OC(=O)C(C)C(OC2CC(C)(OC)C(O)C(C)O2)C(C)C(OC2OC(C)CC([N+](C)(C)C)C2O)C2(C)CC(C)=C(O2)C(C)C(OS(C)(=O)=O)C1(C)O (centres unmarked) [Compound 3]	> 100 mg/L	> 100 mg/L	> 100 mg/L	> 100 mg/L	> 100 mg/L	> 100 mg/L				
CCC1OC(=O)C(C)C(OC2CC(C)(OC)C(OC=O)C(C)O2)C(C)C(OC2OC(C)CC([N+](C)(C)C)C2O)C2(C)CC(C)=C(O2)C(C)C(OS(C)(=O)=O)C1(C)O (centres unmarked) [Compound 4]	> 100 mg/L	> 100 mg/L	> 100 mg/L	> 100 mg/L	> 100 mg/L	> 100 mg/L				
CCC1OC(=O)C(C)C(OC2CC(C)(OC)C(O)C(C)O2)C(C)C(OC2OC(C)CC([N+](C)(C)CC)C2O)C2(C)CC(C)=C(O2)C(C)C(O)C1(C)O (centres unmarked) [Compound 5]	> 100 mg/L	> 100 mg/L	> 100 mg/L	> 100 mg/L	> 100 mg/L	> 100 mg/L				

The next lines start with results.

MIC [1, 7]	MIC ([2]; Staphylococcus aureus FDA 209P)	MIC [3]	MIC [4, 8]	MIC [5]	MIC [6, 9]	SMILES	MIC [1]	MIC [2]	MIC ([4]; IFO3001, read-out: MIC BC)	MIC ([6]; Klebsiella pneumoniae, ATCC10031, read-out: MIC KP)
> 100 mg/L	> 100 mg/L	> 100 mg/L	> 100 mg/L	> 100 mg/L	> 100 mg/L	CCC[N+](C)(C)C1CC(C)OC(OC2C(C)C(OC3CC(C)(OC)C(O)C(C)O3)C(C)C(=O)OC(CC)C(C)(O)C(O)C(C)C3=C(C)CC2(C)O3)C1O (centres unmarked) [Compound 6]				
100 mg/L	> 100 mg/L	> 100 mg/L	> 100 mg/L	> 100 mg/L	> 100 mg/L	CCC1OC(=O)C(C)C(OC2CC(C)(OC)C(O)C(C)O2)C(C)C(OC2OC(C)CC([N+](C)(C)C)C2OC(C)=O)C2(C)CC(C)=C(O2)C(C)C(O)C1(C)O (centres unmarked) [Compound 7]				
> 100 mg/L	> 100 mg/L	> 100 mg/L	> 100 mg/L	> 100 mg/L	> 100 mg/L	CCC1OC(=O)C(C)C(OC2CC(C)(OC)C(O)C(C)O2)C(C)C(OC2OC(C)CC(NC)C2O)C2(C)CC(C)=C(O2)C(C)C(O)C1(C)O (centres unmarked) [Compound 8]				
> 100 mg/L	> 100 mg/L	> 100 mg/L	> 100 mg/L	> 100 mg/L	> 100 mg/L	CCC1OC(=O)C(C)C(OC2CC(C)(OC)C(O)C(C)O2)C(C)C(OC2OC(C)CC(N)C2O)C2(C)CC(C)=C(O2)C(C)C(O)C1(C)O (centres unmarked) [Compound 9]				
> 100 mg/L	> 100 mg/L	> 100 mg/L	> 100 mg/L	> 100 mg/L	> 100 mg/L	CCC1OC(=O)C(C)C(OC2CC(C)(OC)C(O)C(C)O2)C(C)C(OC2OC(C)CC(N(C)CC)C2O)C2(C)CC(C)=C(O2)C(C)C(O)C1(C)O (centres unmarked) [Compound 10]				
